Data published in patent US8519163B2, “Anti-tumor activity of AECHL-1, novel triterpenoid isolated from Ailanthus excelsa in vitro and in vivo” (National Centre for Cell Science, priority 2008, dated 2013).

Assays:
pp53 = test: Western blot of tumor homogenates of C57B1/6 mice; assay type: in vivo, mouse; settings: tumor of C57 mice, 100 μg
Description: (§1) Prior to immunoblot analysis, tumor segments stored at −80° C. were thawed, washed, minced and homogenized in lysis buffer (120 mM NaCl, 1.0% Triton X 100, 20 mM Tris-HCl, pH 7.5, 10% glycerol, 2 mM EDTA, Protease inhibitor cocktail, Roche) using a Polytron homogenization device. Lysates were incubated at 4° C. for 30 min and centrifuged at 14000 r.p.m. in an Eppendorf micro centrifuge for 15 min. Proteins were isolated in solublised form. Protein concentrations were measured by Bradford assay (Bio-Rad protein assay kit) and stored at −80° C. For immunobloting, 60 μg of total protein from the tumor lysates were used Proteins were resolved in a 10% SDS-polyacrylamide gel, transferred to the immobilon-P […] membrane and blocked with 5% (wt/v) non fat dry milk powder (Sigma) in TBST buffer (10 mM Tris pH 7.6, 150 mM NaCl and 0.1% Tween-20) for three hours at room temperature and then incubated with primary antibodies p53, pp53, p21, Cyclin D1, CDK4 and c-Myc in TBST for 3 h and with actin for 1 hour at room temperature. The membrane was incubated further with the secondary antibody HRP-conjugated (BD Bioscience) at 1:10000 dilution for 1 h at room temperature. Following each antibody incubation, the membrane was washed thoroughly with TBST buffer 3 times. The protein bands were visualized using the enhanced chemiluminescence substrate reaction (Pierce) according to the manufacturer's instructions using X-OMAT AR5 film (Kodak)

p21 = test: Western blot of tumor homogenates of C57B1/6 mice; assay type: in vivo, mouse; settings: tumor of C57 mice, 100 μg
Description: as §1

p53 = test: Western blot of tumor homogenates of C57B1/6 mice; assay type: in vivo, mouse; settings: tumor of C57 mice, 100 μg, compared with control
Description: as §1

B16F10 melanoma cells = test: In vivo allograft tumor model; parameters: species or system C57B1/6 mice
Description: (§2) The data reported for tumor volumes are expressed as mean±SEM. Statistical differences were determined by ANOVA and post test applied was Tukey-Kramer multiple comparison Test. For Tumor to body weight ratio post test applied was Dunnett multiple comparisons test.

[1] = tested on: cellular microtubule network; test: Immunocytochemistry, microtubule network in MCF-7 cells; assay type: cell-based, human; settings: paclitaxel 1-20 μM, AECHL-1 2-40 μM, 24 h, confocal microscopy
Description: Immunocytochemistry was performed as described previously. […] Cells were incubated with primary anti-p53 antibodies (1:100; Abcam) and anti-α-tubulin antibodies (1:10000; Sigma chemical Co.) for 1 hour at room temperature. After washing with PBS, cells were incubated with CY2-conjugated secondary antibodies (1:200; Chemicon, Germany) and Alexa-conjugated secondary antibodies (1:10000; Sigma, St. Louis, Mo.) for 45 minutes and nuclear staining was done with DAPI. Images were captured under confocal microscope.
The tumor suppressor p53 plays a critical role in preventing human cancer formation. It translocates into the nucleus and works as a transcription factor by upregulating cell cycle regulatory proteins and induces cell cycle arrest and/or programmed cell death (apoptosis) (11). […] After 24 h of incubation, the p53 translocation in the nucleus (green fluorescence) and microtubule network (red fluorescence) was visualized by confocal microscopy.

MCF-7 = test: In vivo xenograft tumor model; parameters: species or system athymic nude mice
Description: as §2

MCF-7 cells = test: Cell cycle analysis by flow cytometry; assay type: cell-based, human; settings: 24 h
Description: The cell cycle analysis of MCF-7, B16F10 MDA-MB-231 and PC3 cells was done by flow cytometry. […] Cells were harvested with trypsin (0.05%), 0.02% EDTA, 0.05% glucose and a single-cell suspension was prepared. Cells were washed and were pelleted by centrifugation (1000×g for 2 min) and fixed in 70% ethanol while vortexing and stored at 4° C. for 1 hour. Fixed cells were pelleted by centrifugation, to remove ethanol and washed with PBS. Cells were re-suspended in PBS containing 50 μg/ml propidium iodide, 0.1 g/L RNase and 1% BSA, incubated for 30 min at 37° C. in the dark, and analyzed with flow cytometry (FACS Vantage-BD Sciences, USA) equipped with an argon laser at 488 nm. The data was analyzed using Cell Quest software for determining the percent population in different phases of cell cycle.

N.N.[Cl][Pt][Cl] [Cisplatin, reference compound]
phosphorylation of p53 (pp53) (pp53): did not show any change
expression of p21 (p21): increased p21 expression
p53 protein expression (p53): increasing expression
tumor size reduced by (B16F10 melanoma cells; B16F10 allograft, 100 μg intra-tumor for 12 days, day 18): 93.13±0.539%
tumor volume on day 24 (B16F10 melanoma cells; B16F10 allograft, 100 μg, day 24): decreased
histological examination of tumor tissue (B16F10 melanoma cells; C57 mice, 100 μg): significant increase in necrotic nuclei with decreased tumor cell density

CC(=O)O[C@H]1C(=O)[C@@]2(C)[C@H]([C@H](OC(=O)c3ccccc3)[C@]3(O)C[C@H](OC(=O)[C@H](O)[C@@H](NC(=O)c4ccccc4)c4ccccc4)C(C)=C1C3(C)C)[C@]1(OC(C)=O)CO[C@@H]1C[C@@H]2O [Paclitaxel, reference compound]
effect on microtubule network [1]: microtubule polymerization with an increase in the density of cellular microtubules
tumor size reduced by (MCF-7; MCF-7 xenograft, 20 μg/0.05 ml intra-tumor for 10 days): 14.19±0.32%
histological examination of tumor tissue (MCF-7; nude mice, 20 μg): lowered the tumor cell density
Phase of cell cycle (% of cells) G2/M (MCF-7 cells; MCF-7, 1 μM): 72.55%
Phase of cell cycle (% of cells) S (MCF-7 cells; MCF-7, 1 μM): 18.65%
Phase of cell cycle (% of cells) Sub G0 (MCF-7 cells; MCF-7, 1 μM): 3.45%
Phase of cell cycle (% of cells) G1 (MCF-7 cells; MCF-7, 2 μM): 7.41%
Phase of cell cycle (% of cells) G2/M (MCF-7 cells; MCF-7, 2 μM): 63.71%
Phase of cell cycle (% of cells) S (MCF-7 cells; MCF-7, 2 μM): 22.89%
Phase of cell cycle (% of cells) Sub G0 (MCF-7 cells; MCF-7, 2 μM): 5.21%
Phase of cell cycle (% of cells) G2/M (MCF-7 cells; MCF-7, 5 μM): 72.86%
Phase of cell cycle (% of cells) S (MCF-7 cells; MCF-7, 5 μM): 18.35%
Phase of cell cycle (% of cells) Sub G0 (MCF-7 cells; MCF-7, 5 μM): 3.98%
Phase of cell cycle (% of cells) G2/M (MCF-7 cells; MCF-7, 10 μM): 69.36%
Phase of cell cycle (% of cells) S (MCF-7 cells; MCF-7, 10 μM): 18.96%
Phase of cell cycle (% of cells) Sub G0 (MCF-7 cells; MCF-7, 10 μM): 3.47%
